Measured values as given in article PMC4864078, “De Novo Transcriptome Analysis and Detection of Antimicrobial Peptides of the American Cockroach Periplaneta americana (Linnaeus)” (PLoS ONE, 2016).

Assays:
C. albicans (ATCC 14053) = type: cell-based, Candida albicans; details: Mueller-Hinton Broth, 2 × 10^4 CFU/mL, 18 h at 37°C, visible turbidity, complete growth inhibition
Procedure: The bacterial strains E. coli (KACC 13821, ATCC 11775) and Staphylococcus aureus (KACC 10768, ATCC 25923), and the yeast strain Candida albicans (KCTC 7121, ATCC 14053) were purchased from the Korean Agricultural Culture Collection (KACC) and Korean Collection for Type Cultures (KCTC). Both bacteria and the yeast were cultivated overnight in tryptic soy broth (TSB; Difco, USA) at 200 rpm in a 37°C shaking incubator to the stationary phase. Bacteria were cultivated for 3 h in fresh TSB medium under the same condition to the log phase. The strains were stored with 15% glycerol at −70°C until use.
In addition, antimicrobial activities of the peptides were also tested by broth microdilution assays against E. coli, S. aureus, and C. albicans. Briefly, microbes were grown overnight in Mueller-Hinton Broth (MHB) to the onset of the stationary phase with shaking at 200 rpm. The cultures were diluted in fresh MHB to a final concentration of 2 × 10^4 CFU/mL. A stock solution of each peptide was prepared to a concentration of 640 μg/mL in 0.01% acetic acid, and was then serially diluted two-fold to reach a concentration of 10 μg/mL. After 90-μL aliquots of the microbial suspension were dispensed into each well of a 96-well polypropylene microtiter plate, 10 μL of the peptide solution was added. The antimicrobial activities of the peptides were assessed by measuring the visible turbidity in each well of the plate after 18 h of incubation at 37°C. Minimum inhibitory concentrations (MICs) are expressed as a specific value that caused complete growth inhibition.

[1] = tested on: Human umbilical vein endothelial cells (HUVECs); assay: Cell viability assay (MTS); type: cell-based; details: 24 h treatment, 25, 50, 100 and 200 μg/mL, OD 490 nm
Procedure: (§1) The human keratinocytes were maintained in Dulbecco’s Modified Eagle Medium supplemented with 10% fetal bovine serum (FBS; Hyclone, USA), penicillin G (100 U/mL), and streptomycin (100 μg/mL) (Invitrogen, USA). Human umbilical vein endothelial cells (HUVECs) were grown on 0.1% gelatin-coated cell culture dishes in M199 medium (Welgene, Korea) supplemented with 20% (v/v) FBS, 3 ng/mL basic fibroblast growth factor (R&D Systems, USA), 5 U/mL of heparin (Sigma, USA), and a penicillin-streptomycin-amphotericin B mixture (100 U/mL potassium penicillin, […] streptomycin sulfate, and 250 ng/mL amphotericin B; Lonza, Belgium) as a complete medium. Cells were cultured at 37°C in a humidified incubator with 5% CO2. Cells were plated in 96-well tissue culture plates (2 × 10^4 cells per well). After 1 day, they were treated with various concentrations (25, 50, 100, and 200 μg/mL) of peptides. Melittin (Sigma, USA) was used as the positive control. After incubation for 24 h, the viability of the cells was assessed by the Cell Titer 96 AQueous One Solution Cell Proliferation Assay according to the manufacturer’s protocol (Promega, USA). The optical density at 490 nm was measured with a microplate reader (Beckman DTX 8800 Multi Detector, USA).

human keratinocytes = assay: Cell viability assay (MTS); type: cell-based; details: 24 h treatment, 25, 50, 100 and 200 μg/mL, OD 490 nm
Procedure: as §1

CC[C@H](C)[C@H](NC(=O)CN)C(=O)NCC(=O)N[C@@H](C)C(=O)N[C@H](C(=O)N[C@@H](CC(C)C)C(=O)N[C@@H](CCCCN)C(=O)N[C@H](C(=O)N[C@@H](CC(C)C)C(=O)N[C@H](C(=O)N[C@H](C(=O)NCC(=O)N[C@@H](CC(C)C)C(=O)N1CCC[C@H]1C(=O)N[C@@H](C)C(=O)N[C@@H](CC(C)C)C(=O)N[C@H](C(=O)N[C@@H](CO)C(=O)N[C@@H](Cc1c[nH]c2ccccc12)C(=O)N[C@H](C(=O)N[C@@H](CCCCN)C(=O)N[C@@H](CCCNC(=N)N)C(=O)N[C@@H](CCCCN)C(=O)N[C@@H](CCCNC(=N)N)C(=O)N[C@@H](CCC(N)=O)C(=O)N[C@@H](CCC(N)=O)C(N)=O)[C@@H](C)CC)[C@@H](C)CC)[C@@H](C)O)[C@@H](C)O)C(C)C)C(C)C [Melittin]
Minimum Inhibitory Concentration (MIC) (C. albicans (ATCC 14053)): 8 µg/mL | Cell viability of HUVECs [1]: more susceptible | Cell viability of human keratinocytes (human keratinocytes): more susceptible
